# Values of other authors, collected in patent publication US7083802B2, “Treatment of ocular disease” (Advanced Ocular Systems Limited, priority 2003, dated 2006).
# Experiments:
# [1] = reported in co-pending application Ser. No. 10/247,220
smiles,measurement,setting,value
C=CC[C@@H]1/C=C(\C)C[C@H](C)C[C@H](OC)[C@H]2O[C@@](O)(C(=O)C(=O)N3CCCC[C@H]3C(=O)O[C@H](/C(C)=C/[C@@H]3CC[C@@H](O)[C@H](OC)C3)[C@H](C)[C@@H](O)CC1=O)[C@H](C)C[C@@H]2OC [tacrolimus],Dose for administration without substantial toxicity,[1],250 µg
same,Clinical effect in atopic dermatitis,"topical, doses 0.03%–0.3%, after 2–3 weeks treatment",significant clinical improvement
same,Adverse effects of topical administration versus control,"treatment of dermatoses, concentrations up to 0.3%",no significant difference in effects between treated and control groups
